Columns and labels:
Assay type in all cases: physicochemical
[1] = Effect of sucrose on HA viscosity at 60° C. (Example 2); details: HA solution
Procedure: 6.9 g of HA (Lifecore, 888 KDa) was dissolved in 881 mL of 0.9% NaCl overnight. The dissolved HA was sterile filtered with 0.2 μm filter (Millipore, Opticap 4″). 3.97 mL of 1 M Sodium Phosphate, pH 6.71 was added to the HA solution. Then 372 mg of USP grade triamcinolone acetonide (TA) was mixed with 223.2 mL of dissolved HA in a sterile 250 mL Nalgene bottle. […] Each mixture was mixed for 1 hour. No additives were added to the control sample. For each large sample, 2±0.2 mL aliquots were placed in a sterile 4 mL glass vial which was then sealed with septum and aluminum cap. All these aliquoted samples, except the 0 hour samples, were placed in an oven set at 60° C. With the exception of the Day 0 samples, at each time point, 3 of the samples were removed from the oven and allowed to cool to room temperature. The viscosity of each sample was measured using AR550 Rheometer (TA Instrument) with 40 mm 2° steel cone at 22° C. with a 3 min time sweep. The percent retention of the HA viscosity was determined by the ratio of the viscosity (average of the 3 samples) on the specified day to that on Day 0. The stabilization ratio at Day 6 is the ratio of the percent retention of HA viscosity with the specific additive to the percent retention of HA viscosity of the sample with no additive.

[2] = Specific viscosity retention of crosslinked HA hydrogel/HA solution formulation with and without TA, stored at 25° C. (Example 1A)
[3] = Effect of additives on HA viscosity at 60° C., HA/TA (Example 17); details: HA solution
Procedure: 3.92 g of HA (Shiseido, IV=2 m^3/kg) was dissolved in 500 mL of 0.9% NaCl overnight. The dissolved HA was sterile filtered with 0.2 um filter (Millipore, Opticap 4″). 2.16 mL of 1 M Sodium Phosphate, pH 6.71 was added to the HA solution. Then 344.3 mg of USP grade Triamcinolone Acetonide (TA) was mixed with 206.6 mL of dissolved HA in a sterile 250 mL Nalgene bottle. […] No additives were added to the control sample. For each large sample, 2±0.2 mL aliquots were placed in a sterile 4 mL glass vial which was then sealed with septum and aluminum cap. All these aliquoted samples, except the 0 hour samples, were placed in an oven set at 60° C. With the exception of the Day 0 samples, at each time point (Day 1, Day 3 and Day 6), 3 of the samples were removed from the oven and allowed to cool to room temperature. The viscosity of each sample was measured using AR550 Rheometer (TA Instrument) with 40 mm 2° steel cone at 22° C. with a 3 min time sweep. The percent retention of the HA viscosity was determined by the ratio of the viscosity (average of the 3 samples) on the specified day to that on Day 0. The stabilization ratio at Day 6 is the ratio of the percent retention of HA viscosity with the specific additive to the percent retention of HA viscosity of the sample with no additive.

[4] = Effect of sucrose on HA viscosity at 40° C. (Example 4); details: HA solution
Procedure: 6.9 g of HA (Lifecore, 888 KDa) was dissolved in 881 mL of 0.9% NaCl overnight. The dissolved HA was sterile filtered with 0.2 μm filter (Millipore, Opticap 4″). 3.97 mL of 1 M sodium phosphate, pH 6.71 was added to the HA solution. Then 372 mg of USP grade triamcinolone acetonide (TA) was mixed with 223.2 mL of dissolved HA in a sterile 250 mL Nalgene bottle. […] Each mixture was mixed for 1 hour. No additives were added to the control sample. For each large sample, 2±0.2 mL aliquots were placed in a sterile 4 mL glass vial which was then sealed with septum and aluminum cap. All these aliquoted samples, except the Week 0 samples, were placed in an oven set at 40° C. With the exception of the Day 0 samples, at each time point, 3 of the samples were removed from the oven and allowed to cool to room temperature. The viscosity of each sample was measured using AR550 Rheometer (TA Instrument) with 40 mm 2° steel cone at 22° C. with a 3 min time sweep. The percent retention of the HA viscosity was determined by the ratio of the viscosity (average of the 3 samples) on the specified day to that on Week 0. The stabilization ratio at Week 6 is the ratio of the percent retention of HA viscosity with the specific additive to the percent retention of HA viscosity of the sample with no additive.

[5] = Effect of additives on HA viscosity at 60° C., HA/TA (Example 16); details: HA solution
Procedure: Then 344.3 mg of USP grade Triamcinolone Acetonide (TA) was mixed with 206.6 mL of dissolved HA in a sterile 250 mL Nalgene bottle. […] No additives were added to the control sample. For each large sample, 2±0.2 mL aliquots were placed in a sterile 4 mL glass vial which was then sealed with septum and aluminum cap. All these aliquoted samples, except the 0 hour samples, were placed in an oven set at 60° C. With the exception of the Day 0 samples, at each time point (Day 1, Day 3 and Day 7), 3 of the samples were removed from the oven and allowed to cool to room temperature. […] The percent retention of the HA viscosity was determined by the ratio of the viscosity (average of the 3 samples) on the specified day to that on Day 0.

[6] = Effect of sucrose on HA (880) viscosity at 55° C. (Example 10); details: HA (880 KDa) solution
Procedure: 4.7 g of HA (Lifecore, 880 KDa) was dissolved in 600 mL of 0.9% NaCl overnight. The dissolved HA was sterile filtered with 0.2 um filter (Millipore, Opticap 4″). 0.84 mL of 1 M Sodium Phosphate, pH 6.71 was added to 167.51 mL of the filtered HA solution. Then 248.4 mg of USP grade Triamcinolone acetonide (TA) was mixed with 144.2 mL of dissolved HA in a sterile 250 mL Nalgene bottle. […] Each mixture was mixed for 1 hour. No additives were added to the control sample. For each large sample, 2±0.2 mL aliquots were placed in a sterile 4 mL glass vial which was then sealed with septum and aluminum cap. All these aliquoted samples, except the 0 hour samples, were placed in an oven set at 55° C. With the exception of the 0 hour samples, at each time point (Day 1, Day 3 and Day 7), 3 of the samples were removed from the oven and allowed to cool to room temperature. The viscosity of each sample was measured using AR550 Rheometer (TA Instrument) with 40 mm 2° steel cone at 22° C. with a 3 min time sweep. The percent retention of the HA viscosity was determined by the ratio of the viscosity (average of the 3 samples) on the specified day to that on Day 0.

[7] = Effect of sucrose on HA viscosity at 80° C. (Example 1B); details: HA solution
Procedure: 6.9 g of hyaluronic acid, HA (Lifecore, 888 KDa) was dissolved in 881 mL of 0.9% NaCl overnight. The dissolved HA was sterile filtered with 0.2 μm filter (Millipore, Opticap 4″). 3.97 mL of 1 M sodium phosphate, pH 6.71 was added to the HA solution. Then 372 mg of USP grade triamcinolone acetonide (TA) was mixed with 223.2 mL of dissolved HA in a sterile 250 mL Nalgene bottle. […] Each mixture was mixed for 1 hour. No additives were added to the control sample. For each large sample, 2±0.2 mL aliquots were placed in a sterile 4 mL glass vial which was then sealed with septum and aluminum cap. All these aliquoted samples, except the 0 hour samples, were placed in an oven set at 80° C. With the exception of the 0 hour samples, at each time point, 3 of the samples were removed from the oven and allowed to cool to room temperature. The viscosity of each sample was measured using AR550 Rheometer (TA Instrument) with 40 mm 2° steel cone at 22° C. with a 3 min time sweep. The percent retention of the HA viscosity was determined by the ratio of the viscosity (average of the 3 samples) on the specified day to that on 0 hour. The stabilization ratio at 30 hours is the ratio of the percent retention of HA viscosity with the specific additive to the percent retention of HA viscosity of the sample with no additive.

[8] = Effect of sucrose on HA viscosity at 55° C. (Example 3); details: HA solution
Procedure: 6.9 g of HA (Lifecore, 888 KDa) was dissolved in 881 mL of 0.9% NaCl overnight. The dissolved HA was sterile filtered with 0.2 um filter (Millipore, Opticap 4″). 3.97 mL of 1 M Sodium Phosphate, pH 6.71 was added to the HA solution. Then 135.3 mg of USP grade Triamcinolone acetonide (TA) was mixed with 81.2 mL of dissolved HA in a sterile 250 mL Nalgene bottle. […] Each mixture was mixed for 1 hour. No additives were added to the control sample. For each large sample, 2±0.2 mL aliquots were placed in a sterile 4 mL glass vial which was then sealed with septum and aluminum cap. All these aliquoted samples, except the 0 hour samples, were placed in an oven set at 55° C. With the exception of the Day 0 samples, at each time point, 3 of the samples were removed from the oven and allowed to cool to room temperature. The viscosity of each sample was measured using AR550 Rheometer (TA Instrument) with 40 mm 2° steel cone at 22° C. with a 3 min time sweep. The percent retention of the HA viscosity was determined by the ratio of the viscosity (average of the 3 samples) on the specified day to that on Day 0. The stabilization ratio at Day 6 is the ratio of the percent retention of HA viscosity with the specific additive to the percent retention of HA viscosity of the sample with no additive.

[9] = Effect of sucrose on HA (730) viscosity at 55° C. (Example 11); details: HA (730 KDa) solution
Procedure: 4.7 g of HA (Lifecore, 730 KDa) was dissolved in 600 mL of 0.9% NaCl overnight. The dissolved HA was sterile filtered with 0.2 um filter (Millipore, Opticap 4″). 0.86 mL of 1 M Sodium Phosphate, pH 6.71 was added to 171.8 mL of the HA solution. Then 248.2 mg of USP grade Triamcinolone acetonide (TA) was mixed with 148.9 mL of dissolved HA in a sterile 250 mL Nalgene bottle. […] Each mixture was mixed for 1 hour. No additives were added to the control sample. For each large sample, 2±0.2 mL aliquots were placed in a sterile 4 mL glass vial which was then sealed with septum and aluminum cap. All these aliquoted samples, except the 0 hour samples, were placed in an oven set at 55° C. With the exception of the 0 hour samples, at each time point (Day 1, Day 3 and Day 7), 3 of the samples were removed from the oven and allowed to cool to room temperature. The viscosity of each sample was measured using AR550 Rheometer (TA Instrument) with 40 mm 2° steel cone at 22° C. with a 3 min time sweep. The percent retention of the HA viscosity was determined by the ratio of the viscosity (average of the 3 samples) on the specified day to that on Day 0.

[10] = Effect of additives on HA viscosity at 60° C., HA/triamcinolone hexacetonide (Example 18); details: HA solution
Procedure: 19.6 g of HA (Shiseido, IV=2 m^3/kg) was dissolved in 2.5 L of 0.9% NaCl overnight. The dissolved HA was sterile filtered with 0.2 um filter (Millipore, Opticap 4″). 1.15 mL of 1 M Sodium Phosphate, pH 6.71 was added to 228.9 mL of the HA solution. Then 334.9 mg of USP grade Triamcinolone hexacetonide(TH) was mixed with 200.95 mL of dissolved HA in a sterile 250 mL Nalgene bottle. […] Each mixture was mixed for 1 hour. No additives were added to the control sample. For each large sample, 2±0.2 mL aliquots were placed in a sterile 4 mL glass vial which was then sealed with septum and aluminum cap. All these aliquoted samples, except the Day 0 samples, were placed in an oven set at 60° C. With the exception of the Day 0 samples, at each time point, 3 of the samples were removed from the oven and allowed to cool to room temperature. The viscosity of each sample was measured using AR550 Rheometer (TA Instrument) with 40 mm 2° steel cone at 22° C. with a 3 min time sweep. The percent retention of the HA viscosity was determined by the ratio of the viscosity (average of the 3 samples) on the specified day to that on Day 0. The stabilization ratio at Day 6 is the ratio of the percent retention of HA viscosity with the specific additive to the percent retention of HA viscosity of the sample with no additive.

effect of presence of corticosteroid on HA viscosity vs HA without it (in words) [1] | effect of presence of corticosteroid on HA viscosity vs same formulation without it (in words) [2] | effect of presence of corticosteroid on HA viscosity vs HA without it (in words) [3] | effect of presence of corticosteroid on HA viscosity vs HA without it (in words) [4] | effect of presence of corticosteroid on HA viscosity vs HA without it (in words) [5] | effect of presence of corticosteroid on HA viscosity vs HA without it (in words) [7] | effect of presence of corticosteroid on HA viscosity vs HA without it (in words) [8] | effect of presence of corticosteroid on HA viscosity vs HA without it (in words) [10] | SMILES | effect of presence of corticosteroid on HA viscosity vs HA without it (in words) [6] | effect of presence of corticosteroid on HA viscosity vs HA without it (in words) [9]
increased degradation of the HA | decreased more rapidly over time | increased degradation of the HA | increased degradation of the HA | increased degradation of the HA | increased degradation of the HA | increased degradation of the HA |  | CC1(C)O[C@@H]2C[C@H]3[C@@H]4CCC5=CC(=O)C=C[C@]5(C)[C@@]4(F)[C@@H](O)C[C@]3(C)[C@]2(C(=O)CO)O1 [TA, triamcinolone acetonide] | increased decrease in the viscosity of the HA | increased decrease in the viscosity of the HA
 |  |  |  |  |  |  | decrease in the viscosity of the HA | CC(C)(C)CC(=O)OCC(=O)[C@@]12OC(C)(C)O[C@@H]1C[C@H]1[C@@H]3CCC4=CC(=O)C=C[C@]4(C)[C@@]3(F)[C@@H](O)C[C@@]12C [triamcinolone hexacetonide, Triamcinolone hexacetonide] |  | 

— patent publication US20150352142A1, “STABILIZED COMPOSITIONS COMPRISING HYALURONIC ACID” (Carbylan Therapeutics, Inc., priority 2013, published 2015)
